# Source: ChEMBL document CHEMBL1201862, “PubChem BioAssay data set” (2004)
# Active and inactive are the calls of the source.
# Columns and labels:
# [1] = A Cell Based Secondary Assay To Explore Cytotoxicity of Compounds that Sensitize Mycobacterium Tuberculosis to Beta-Lactam Antibiotics.; assay type: functional
# [2] = molecular target: Mothers against decapentaplegic homolog 3 (Homo sapiens, UniProt P84022); test: Smad3 binding inhibitors, lysate ELISA, dose response, cell lysate, secondary confirmation, chemiluminescent ELISA, HEK293 lysate (AID 1058); assay type: functional
# [3] = tested on: HeLa; test: HeLa cell cytotoxicity, dose response, cytotoxicity control, 24 h, cherry-picked samples (AID 504726); assay type: functional, cell-based; conditions: Homo sapiens;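 note: potency for cytotoxicity as loss of luminescence signal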
# [4] = molecular target: T1, Eukaryotic translation initiation factor 2-alpha kinase 3 (Homo sapiens, UniProt Q9NZJ5); test: Counterscreen assay for PERK inhibitors: Dose response cell-based high throughput screening assay to measure inhibition of PERK at 6 hours. [Related pubchem assays: 1522, 1416 ]; assay type: functional
# T1 sequence (Q9NZJ5 whole entry): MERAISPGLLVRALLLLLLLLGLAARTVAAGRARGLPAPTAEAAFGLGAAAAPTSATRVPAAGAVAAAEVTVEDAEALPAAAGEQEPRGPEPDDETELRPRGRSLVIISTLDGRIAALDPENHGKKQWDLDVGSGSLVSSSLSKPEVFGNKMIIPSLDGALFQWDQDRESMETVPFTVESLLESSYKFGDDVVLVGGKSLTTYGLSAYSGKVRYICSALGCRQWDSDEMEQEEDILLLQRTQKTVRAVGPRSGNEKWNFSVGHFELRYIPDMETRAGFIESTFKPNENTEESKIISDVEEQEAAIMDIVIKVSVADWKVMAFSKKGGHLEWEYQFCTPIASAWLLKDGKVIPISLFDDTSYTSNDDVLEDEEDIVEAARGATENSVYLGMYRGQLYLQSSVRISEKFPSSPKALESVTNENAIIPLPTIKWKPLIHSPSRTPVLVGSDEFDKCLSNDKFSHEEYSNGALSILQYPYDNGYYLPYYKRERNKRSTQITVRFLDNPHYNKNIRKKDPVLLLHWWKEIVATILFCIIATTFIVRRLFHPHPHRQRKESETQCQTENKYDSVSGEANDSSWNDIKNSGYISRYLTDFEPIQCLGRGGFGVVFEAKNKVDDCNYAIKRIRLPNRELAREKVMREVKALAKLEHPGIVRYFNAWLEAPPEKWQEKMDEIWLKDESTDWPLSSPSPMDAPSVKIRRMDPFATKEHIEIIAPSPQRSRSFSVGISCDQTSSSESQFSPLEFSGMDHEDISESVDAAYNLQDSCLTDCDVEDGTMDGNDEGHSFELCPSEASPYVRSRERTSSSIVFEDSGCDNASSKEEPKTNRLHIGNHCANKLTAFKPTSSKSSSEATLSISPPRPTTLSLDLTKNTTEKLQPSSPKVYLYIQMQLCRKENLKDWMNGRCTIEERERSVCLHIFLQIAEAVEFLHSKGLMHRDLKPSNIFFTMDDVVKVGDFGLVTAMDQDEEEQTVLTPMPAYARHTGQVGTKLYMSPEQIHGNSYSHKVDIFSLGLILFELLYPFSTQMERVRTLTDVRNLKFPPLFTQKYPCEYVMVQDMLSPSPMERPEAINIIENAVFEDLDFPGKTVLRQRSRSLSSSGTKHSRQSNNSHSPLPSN
# [5] = molecular target: T1, Eukaryotic translation initiation factor 2-alpha kinase 3; test: Dose response cell-based high-throughput screening assay to measure PERK inhibition. [Related pubchem assays: 1416 ]; assay type: functional
# [6] = tested on: Streptococcus; test: Group A Streptococcus viability loss, dose response, counter-screen for streptokinase expression inhibitor project, luminescence, BacTiterGlo (AID 1915); assay type: functional, organism-based;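 note: potency for reduction of bacterial viability or growth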
# [7] = molecular target: T2, Streptokinase A (Streptococcus pyogenes serotype M1, UniProt P10520); test: S. pyogenes streptokinase expression inhibitors, potency, dose response, plasminogen activation absorbance, OD405 (AID 1914); assay type: functional, Streptococcus pyogenes M1 GAS;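 note: secreted streptokinase activity via plasminogen activation per viability signal from cell pellet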
# T2 sequence (P10520 whole entry): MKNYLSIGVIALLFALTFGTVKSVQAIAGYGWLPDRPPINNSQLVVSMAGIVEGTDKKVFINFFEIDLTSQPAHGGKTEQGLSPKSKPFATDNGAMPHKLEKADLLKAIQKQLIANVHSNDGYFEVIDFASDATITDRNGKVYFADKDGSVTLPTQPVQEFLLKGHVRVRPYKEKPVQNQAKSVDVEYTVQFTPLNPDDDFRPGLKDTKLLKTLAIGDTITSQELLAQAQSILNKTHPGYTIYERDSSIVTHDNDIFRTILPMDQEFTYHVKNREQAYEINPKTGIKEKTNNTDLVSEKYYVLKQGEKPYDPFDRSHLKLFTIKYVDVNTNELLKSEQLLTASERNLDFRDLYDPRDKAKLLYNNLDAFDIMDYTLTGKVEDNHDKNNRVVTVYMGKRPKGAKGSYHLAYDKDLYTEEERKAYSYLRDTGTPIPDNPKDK
# [8] = molecular target: T3, Hexokinase HKDC1 (Homo sapiens, UniProt Q2TB90); test: HKDC1 hexokinase inhibitors, dose response, biochemical, W721R variant (AID 504729); assay type: functional
# T3 sequence (Q2TB90 whole entry): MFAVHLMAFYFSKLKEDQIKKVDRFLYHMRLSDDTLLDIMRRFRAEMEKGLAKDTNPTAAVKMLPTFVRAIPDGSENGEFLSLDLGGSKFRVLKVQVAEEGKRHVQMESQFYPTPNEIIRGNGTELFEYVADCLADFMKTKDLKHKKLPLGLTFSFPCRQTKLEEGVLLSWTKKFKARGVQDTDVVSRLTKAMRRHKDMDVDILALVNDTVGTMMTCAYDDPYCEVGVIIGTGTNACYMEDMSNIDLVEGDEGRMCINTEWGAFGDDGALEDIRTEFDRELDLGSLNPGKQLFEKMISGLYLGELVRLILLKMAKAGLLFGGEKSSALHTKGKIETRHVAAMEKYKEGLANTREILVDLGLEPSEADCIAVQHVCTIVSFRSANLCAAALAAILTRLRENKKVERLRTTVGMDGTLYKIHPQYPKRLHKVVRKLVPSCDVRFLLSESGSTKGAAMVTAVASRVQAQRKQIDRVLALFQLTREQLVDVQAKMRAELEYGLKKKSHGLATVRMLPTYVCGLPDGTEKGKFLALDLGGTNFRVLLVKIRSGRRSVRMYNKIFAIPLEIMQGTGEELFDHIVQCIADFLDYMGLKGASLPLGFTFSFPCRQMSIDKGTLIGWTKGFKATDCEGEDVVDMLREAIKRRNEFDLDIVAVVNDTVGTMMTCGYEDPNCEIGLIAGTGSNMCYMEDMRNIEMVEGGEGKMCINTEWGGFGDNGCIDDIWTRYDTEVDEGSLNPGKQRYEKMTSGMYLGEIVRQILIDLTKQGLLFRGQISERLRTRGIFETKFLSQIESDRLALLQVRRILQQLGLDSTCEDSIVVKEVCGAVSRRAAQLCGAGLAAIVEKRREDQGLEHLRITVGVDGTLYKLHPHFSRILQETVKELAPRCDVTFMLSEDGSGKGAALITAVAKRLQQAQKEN
# [9] = tested on: Streptococcus sp. 'group A'; test: growth inhibition of control SK(-) GAS strain, dose response, counter-screen for streptokinase expression inhibitor project, luminescence, kanamycin, BacTiterGlo, confirmation (AID 1900); assay type: functional, organism-based
# [10] = molecular target: T4, Microphthalmia-associated transcription factor (Homo sapiens, UniProt O75030); test: TRPM1 promoter luciferase signal decrease, dose response, MITF inhibitor project, cell-based, SK-MEL-5, cherry-picked, set 3 (AID 493073); assay type: functional
# T4 sequence (O75030 whole entry): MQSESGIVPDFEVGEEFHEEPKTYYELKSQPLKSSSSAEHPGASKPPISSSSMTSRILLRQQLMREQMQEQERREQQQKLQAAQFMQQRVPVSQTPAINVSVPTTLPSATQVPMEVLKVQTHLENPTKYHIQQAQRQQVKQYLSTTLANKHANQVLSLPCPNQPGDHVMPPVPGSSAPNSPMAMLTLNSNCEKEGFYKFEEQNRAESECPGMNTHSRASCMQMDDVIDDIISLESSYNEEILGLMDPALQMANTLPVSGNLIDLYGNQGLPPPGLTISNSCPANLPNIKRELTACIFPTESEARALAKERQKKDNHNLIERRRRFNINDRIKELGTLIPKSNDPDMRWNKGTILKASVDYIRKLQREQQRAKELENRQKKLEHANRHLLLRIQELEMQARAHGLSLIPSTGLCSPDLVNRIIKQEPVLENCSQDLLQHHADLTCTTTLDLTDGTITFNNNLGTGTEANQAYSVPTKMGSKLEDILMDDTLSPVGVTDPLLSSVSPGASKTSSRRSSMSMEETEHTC
# [11] = Luminescence Cell-Based Dose Retest to Confirm Inhibitors of Cancer Stem Cells. [Related pubchem assays (depositor defined):AID2717, AID2721]; assay type: functional; conditions: Homo sapiens
# [12] = A375 melanoma cell viability loss, dose response, counter-screen for MITF inhibitor project, CellTiter-Glo luminescence, dry powder, set 4 (AID 624364); assay type: functional, cell-based; conditions: A-375;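 note: A375 melanoma cells are MITF independent so this is a counter screen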
# [13] = A375 melanoma cell cytotoxicity, dose response, counter-screen for MITF inhibitor project, CellTiter-Glo luminescence, dry powder, set 2 (AID 624489); assay type: functional, cell-based; conditions: A-375;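 note: actives are compounds lowering A375 viability meaning general cytotoxicity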
# [14] = molecular target: T5, Protein skinhead-1 (Caenorhabditis elegans, UniProt P34707); assay type: functional
# T5 sequence (P34707 whole entry): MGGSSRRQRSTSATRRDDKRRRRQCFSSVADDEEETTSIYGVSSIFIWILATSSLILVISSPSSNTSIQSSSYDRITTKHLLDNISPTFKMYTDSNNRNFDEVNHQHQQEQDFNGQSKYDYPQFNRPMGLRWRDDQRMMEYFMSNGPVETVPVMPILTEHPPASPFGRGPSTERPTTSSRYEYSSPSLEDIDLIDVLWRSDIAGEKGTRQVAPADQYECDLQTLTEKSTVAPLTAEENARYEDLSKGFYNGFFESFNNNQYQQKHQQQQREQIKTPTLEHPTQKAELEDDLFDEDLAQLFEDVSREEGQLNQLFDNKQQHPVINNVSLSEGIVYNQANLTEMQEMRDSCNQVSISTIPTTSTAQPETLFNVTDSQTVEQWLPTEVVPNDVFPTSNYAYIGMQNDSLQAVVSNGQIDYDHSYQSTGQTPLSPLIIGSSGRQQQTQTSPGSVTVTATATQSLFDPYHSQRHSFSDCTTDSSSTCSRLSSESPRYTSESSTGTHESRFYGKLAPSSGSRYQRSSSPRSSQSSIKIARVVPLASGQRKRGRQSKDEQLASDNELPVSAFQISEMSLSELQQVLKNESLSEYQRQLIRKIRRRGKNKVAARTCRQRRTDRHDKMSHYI
# [15] = molecular target: Luciferin 4-monooxygenase (Photinus pyralis, UniProt P08659); test: Counter Screen for Luciferase-based Assay Positives. [Related pubchem assays: 620, 618, 411 ]
# [16] = tested on: HT-1080; test: cytotoxicity in HT1080 fibrosarcoma cells, cell-based, fluorescence readout (AID 620); assay type: functional; conditions: Homo sapiens
# [17] = molecular target: Cytochrome P450 2C19 (Homo sapiens, UniProt P33261); test: Cytochrome panel assay with activity outcomes. Panel member name: p450-cyp2c19 Compounds with AC50 equal or less than 10 uM are considered active; assay type: functional; conditions: read-out: AC50
# [18] = molecular target: Cytochrome P450 2C9 (Homo sapiens, UniProt P11712)
# [19] = molecular target: T6, Alkaline phosphatase, tissue-nonspecific isozyme (Homo sapiens, UniProt P05186)
# T6 sequence (P05186 whole entry): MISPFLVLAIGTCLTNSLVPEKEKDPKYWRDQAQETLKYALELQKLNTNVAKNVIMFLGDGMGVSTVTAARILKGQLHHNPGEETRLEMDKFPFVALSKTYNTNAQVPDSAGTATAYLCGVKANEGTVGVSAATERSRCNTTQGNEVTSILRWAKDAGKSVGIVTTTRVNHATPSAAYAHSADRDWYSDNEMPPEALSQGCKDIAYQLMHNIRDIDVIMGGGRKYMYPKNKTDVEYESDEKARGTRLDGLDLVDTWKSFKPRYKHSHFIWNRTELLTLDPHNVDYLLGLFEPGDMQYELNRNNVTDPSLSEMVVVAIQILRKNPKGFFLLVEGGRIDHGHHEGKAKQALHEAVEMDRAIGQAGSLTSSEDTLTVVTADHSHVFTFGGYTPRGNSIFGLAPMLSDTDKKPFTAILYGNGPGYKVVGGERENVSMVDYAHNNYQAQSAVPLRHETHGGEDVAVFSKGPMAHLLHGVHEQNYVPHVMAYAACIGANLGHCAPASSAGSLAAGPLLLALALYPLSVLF
# Mothers against decapentaplegic homolog 3, sequence (P84022 whole entry): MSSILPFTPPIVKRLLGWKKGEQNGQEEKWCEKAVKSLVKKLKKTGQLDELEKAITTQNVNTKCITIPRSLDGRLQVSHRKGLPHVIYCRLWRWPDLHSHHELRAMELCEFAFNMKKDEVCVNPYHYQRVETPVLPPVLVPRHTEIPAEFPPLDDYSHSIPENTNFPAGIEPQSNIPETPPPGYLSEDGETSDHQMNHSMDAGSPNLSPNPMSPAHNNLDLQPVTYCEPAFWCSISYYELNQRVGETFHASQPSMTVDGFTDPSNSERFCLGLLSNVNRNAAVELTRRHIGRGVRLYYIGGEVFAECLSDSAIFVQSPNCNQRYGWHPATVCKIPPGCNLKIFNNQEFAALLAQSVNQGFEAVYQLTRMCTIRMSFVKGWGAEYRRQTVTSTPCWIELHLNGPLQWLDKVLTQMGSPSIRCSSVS
# Luciferin 4-monooxygenase, sequence (P08659 whole entry): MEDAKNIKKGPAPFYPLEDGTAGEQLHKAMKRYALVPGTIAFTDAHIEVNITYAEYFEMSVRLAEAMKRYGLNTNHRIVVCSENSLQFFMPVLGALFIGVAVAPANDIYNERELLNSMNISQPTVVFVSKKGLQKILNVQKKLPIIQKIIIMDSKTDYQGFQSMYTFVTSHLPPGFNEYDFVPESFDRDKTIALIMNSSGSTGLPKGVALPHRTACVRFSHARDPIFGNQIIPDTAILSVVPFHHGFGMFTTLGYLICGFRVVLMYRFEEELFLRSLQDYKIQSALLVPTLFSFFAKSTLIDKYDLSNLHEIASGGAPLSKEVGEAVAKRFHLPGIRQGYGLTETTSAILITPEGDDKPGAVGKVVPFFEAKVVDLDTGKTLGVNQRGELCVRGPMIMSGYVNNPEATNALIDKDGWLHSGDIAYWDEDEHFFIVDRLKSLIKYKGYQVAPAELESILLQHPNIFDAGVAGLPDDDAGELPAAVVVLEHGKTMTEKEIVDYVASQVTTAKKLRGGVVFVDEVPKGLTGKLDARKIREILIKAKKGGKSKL
# Cytochrome P450 2C19, sequence (P33261 whole entry): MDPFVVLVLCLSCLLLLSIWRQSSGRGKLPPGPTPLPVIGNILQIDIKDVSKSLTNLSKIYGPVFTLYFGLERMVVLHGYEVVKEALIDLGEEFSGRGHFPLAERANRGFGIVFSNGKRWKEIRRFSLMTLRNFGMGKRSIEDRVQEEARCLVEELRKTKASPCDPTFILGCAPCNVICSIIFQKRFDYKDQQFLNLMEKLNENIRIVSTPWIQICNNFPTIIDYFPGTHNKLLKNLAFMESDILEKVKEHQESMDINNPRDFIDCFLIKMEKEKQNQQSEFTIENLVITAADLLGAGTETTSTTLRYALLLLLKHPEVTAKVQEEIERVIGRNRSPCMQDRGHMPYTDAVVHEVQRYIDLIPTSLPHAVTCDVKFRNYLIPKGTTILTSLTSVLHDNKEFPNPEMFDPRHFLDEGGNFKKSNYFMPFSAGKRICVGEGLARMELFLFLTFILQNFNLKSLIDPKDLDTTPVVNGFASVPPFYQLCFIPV
# Cytochrome P450 2C9, sequence (P11712 whole entry): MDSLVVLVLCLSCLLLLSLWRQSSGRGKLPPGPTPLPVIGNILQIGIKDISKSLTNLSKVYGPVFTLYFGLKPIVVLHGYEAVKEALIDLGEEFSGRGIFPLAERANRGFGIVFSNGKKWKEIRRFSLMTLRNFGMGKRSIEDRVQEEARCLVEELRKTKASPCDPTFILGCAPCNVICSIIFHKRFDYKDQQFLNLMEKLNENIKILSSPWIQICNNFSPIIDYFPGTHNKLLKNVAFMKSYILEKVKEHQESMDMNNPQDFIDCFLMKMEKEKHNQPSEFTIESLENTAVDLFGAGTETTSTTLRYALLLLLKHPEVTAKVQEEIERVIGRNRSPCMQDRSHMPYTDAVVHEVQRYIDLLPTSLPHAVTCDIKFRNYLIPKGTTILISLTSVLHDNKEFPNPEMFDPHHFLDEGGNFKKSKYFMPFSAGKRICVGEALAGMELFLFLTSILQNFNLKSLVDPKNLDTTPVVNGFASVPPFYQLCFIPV
compound,measurement,setting,value
C[C@H](NC(=O)c1[nH]cnc1C(=O)Nc1cccc(Cl)c1)c1ccccc1,CC50,[1],19.3 µM (active)
COc1cccc(C(c2cc3c(cc2O)OCO3)N2CCOCC2)c1OC (centres undefined),IC50,[2],6.43 µM (not active)
CCOc1ccc(C(C)NC(=O)c2ccccc2OCc2c(C)noc2C)cc1OCC (centres undefined),AC50,[3],113 µM (active)
CC(C)(C)N1CCC1CN (centres undefined),EC50,[4],> 55.7 µM (not active)
same,EC50,[5],> 55.7 µM (not active)
N#C/C(=C(/O)CCl)c1nc2c(s1)CCc1ccccc1-2,EC50,[6],> 150 µM (not active)
same,EC50,[7],> 150 µM (not active)
same,IC50,[8],17.4 µM (active)
same,EC50,[9],> 150 µM (not active)
Cc1nc([N+](=O)[O-])cn1CCC#N,EC50,[4],> 55.7 µM (not active)
same,EC50,[5],> 55.7 µM (not active)
CC1CCN(CC(CS(=O)(=O)c2ccc([N+](=O)[O-])cc2)N2CCC(C)CC2)CC1 (centres undefined),AC50,[10],6.62 µM (active)
same,AC50,[11],1.59 µM (active)
same,AC50,[12],> 70 µM (inactive)
same,CC50,[1],7.41 µM (active)
same,AC50,[13],> 70 µM (inactive)
Cc1ccc2nc(NC(=O)c3ccco3)sc2c1,IC50,[14],> 100 µM (inactive)
same,EC50,[15],18.9 µM (active)
same,EC50,[16],> 50 µM (not active)
O=C(CCN1C(=O)/C(=C/c2cccc(Br)c2)SC1=S)NNC(=O)c1cccnc1,AC50,[17],1.58 µM (inconclusive)
same,AC50,[18],0.447 µM (inconclusive)
same,EC50,[19],83.8 µM (not active)
CCN(C(=O)COC(=O)CCCOc1ccc(Cl)cc1C)c1c(N)n(Cc2ccccc2)c(=O)[nH]c1=O,AC50,[3],43.7 µM (active)
O=C1OC2(c3ccc(O)cc3Oc3cc(O)ccc32)c2ccccc21 [FLUORESCEIN],IC50,[2],4.89 µM (not active)
